Laboratory results reported in US9999222B2, “Herbicidal combination comprising azines” (BASF SE, priority 2014, dated 2018).
Read-outs that look alike come from different tables or passages of the source.

Key:
Experiment in all cases: Greenhouse test, pre-emergence treatment
IPOHE = format: in vivo, Ipomoea hederacea; conditions: Ipomoea hederacea, 480 h
Description: (§1) The culture containers used were plastic flowerpots containing loamy sand with approximately 3.0% of humus as the substrate. The seeds of the test plants were sown separately for each species.
(§2) For the pre-emergence treatment, the active ingredients, which had been suspended or emulsified in water, were applied directly after sowing by means of finely distributing nozzles. The containers were irrigated gently to promote germination and growth and subsequently covered with transparent plastic hoods until the plants had rooted. This cover caused uniform germination of the test plants, unless this had been impaired by the active ingredients.
(§3) Depending on the species, the plants were kept at 10-25° C. or 20-35° C., respectively.
(§4) The test period extended over 2 to 4 weeks. During this time, the plants were tended, and their response to the individual treatments was evaluated.
(§5) Evaluation was carried out using a scale from 0 to 100. 100 means no emergence of the plants, or complete destruction of at least the aerial moieties, and 0 means no damage, or normal course of growth. A moderate herbicidal activity is given at values of at least 60, a good herbicidal activity is given at values of at least 70, and a very good herbicidal activity is given at values of at least 85.
(§6) The respective stated components a and b, and if appropriate, c were formulated as a 10% by weight strength emulsion concentrate and, with addition of the amount of solvent system, introduced into the spray liquor used for applying the active compound.
(§7) In the examples, the solvent used was water.
(§8) In the examples below, using the method of S. R. Colby (1967) “Calculating synergistic and antagonistic responses of herbicide combinations”, Weeds 15, p. 22ff., the value E, which is expected if the activity of the individual active compounds is only additive, was calculated. E=X+Y−(X·Y/100) where • X=percent activity using active compound a at an application rate A; • Y=percent activity using active compound b at an application rate B; • E=expected activity (in %) by a+b at application rates A+B.
(§9) If the value found experimentally is higher than the value E calculated according to Colby, a synergistic effect is present.

GERPU = format: in vivo, Geranium pusillum; conditions: Geranium pusillum, pre-emergence, 480 h
Description: as §1, §2, §3, §4, §5, §6, §7, §8, §9

SIDRH = format: in vivo, Sida rhombifolia; conditions: for inhibition at 50 g/ha: 50 g ai/ha
Description: as §1, §2, §3, §4, §5, §6, §7, §8, §9

POLCO = format: in vivo, Polygonum convolvulus; conditions: pre-emergence
Description: as §1, §2, §3, §4, §5, §6, §7, §8, §9

GALAP = format: in vivo, Galium aparine; conditions: Galium aparine, pre-emergence, 480 h
Description: as §1, §2, §3, §4, §5, §6, §7, §8, §9

ANTAR = format: in vivo; conditions: Anthemis arvensis, 480 h, 20 DAT, read-out: observed % activity; for inhibition at 25 g/ha: 25 g ai/ha; for inhibition at 50 g/ha: 50 g ai/ha
Description: as §1, §2, §3, §4, §5, §6, §7, §8, §9

CENCY = format: in vivo; conditions: 480 h, individual, read-out: observed % activity 20 DAT; for inhibition at 25 g/ha: use rate 25 g ai/ha; for inhibition at 50 g/ha: use rate 50 g ai/ha
EPHHL = format: in vivo, Euphorbia heterophylla; conditions: Euphorbia heterophylla, pre-emergence, 480 h
Description: as §1, §2, §3, §4, §5, §6, §7, §8, §9

KCHSC = format: in vivo, Kochia scoparia; conditions: Bassia scoparia, pre-emergence, 480 h
Description: as §1, §2, §3, §4, §5, §6, §7, §8, §9

ABUTH = format: in vivo, Abutilon theophrasti; conditions: Abutilon theophrasti, 480 h; for inhibition at 25 g/ha: 25 g ai/ha
Description: as §1, §2, §3, §4, §5, §6, §7, §8, §9

COMBE = format: in vivo, Commelina benghalensis; conditions: Commelina benghalensis, pre-emergence, 480 h
Description: as §1, §2, §3, §4, §5, §6, §7, §8, §9

[1] = 50 g ai/ha, 20 DAT, read-out: observed % activity
[2] = 25 g ai/ha, 20 DAT, read-out: observed % activity
[3] = GERPU, individual, use rate 25 g ai/ha, read-out: observed % activity 20 DAT
[4] = Sida rhombifolia, pre-emergence, 480 h, 25 g ai/ha, 20 DAT, read-out: observed % activity
[5] = Sida rhombifolia, pre-emergence, 480 h, 20 DAT, read-out: observed % activity
[6] = Fallopia convolvulus, 480 h, 25 g ai/ha, 20 DAT, read-out: observed % activity
[7] = Fallopia convolvulus, 480 h, 50 g ai/ha, 20 DAT, read-out: observed % activity
[8] = Fallopia convolvulus, 480 h, POLCO, individual, use rate 25 g ai/ha, read-out: observed % activity 20 DAT
[9] = Fallopia convolvulus, 480 h, POLCO, individual, use rate 50 g ai/ha, read-out: observed % activity 20 DAT
[10] = GALAP, individual, use rate 25 g ai/ha, read-out: observed % activity 20 DAT
[11] = GALAP, individual, use rate 50 g ai/ha, read-out: observed % activity 20 DAT
[12] = EPHHL, individual, use rate 25 g ai/ha, read-out: observed % activity 20 DAT
[13] = EPHHL, individual, use rate 50 g ai/ha, read-out: observed % activity 20 DAT
[14] = 20 DAT, read-out: observed % activity
[15] = COMBE, individual, use rate 50 g ai/ha, read-out: observed % activity 20 DAT
[16] = 6 g ai/ha, 20 DAT, read-out: observed % activity
[17] = 12 g ai/ha, 20 DAT, read-out: observed % activity

CS(=O)(=O)c1ccc(C(=O)C2C(=O)CCCC2=O)c([N+](=O)[O-])c1 [Mesotrione, mesotrione]
inhibition at 50 g/ha (IPOHE; [1]): 30%
inhibition at 25 g/ha (GERPU; [2]): 0%
inhibition at 50 g/ha (GERPU; [1]): 0%
inhibition at 25 g/ha (GERPU; [3]): 70%
observed % activity (SIDRH; 25 g ai/ha, 20 DAT): 55%
inhibition at 25 g/ha (SIDRH; [4]): 60%
inhibition at 50 g/ha (SIDRH; [5]): 85%
inhibition at 25 g/ha (POLCO; [6]): 20%
inhibition at 50 g/ha (POLCO; [7]): 30%
inhibition at 25 g/ha (POLCO; [8]): 0%
inhibition at 50 g/ha (POLCO; [9]): 0%
inhibition at 50 g/ha (GALAP; [1]): 75%
inhibition at 25 g/ha (GALAP; [10]): 65%
inhibition at 50 g/ha (GALAP; [11]): 80%
inhibition at 25 g/ha (ANTAR): 85%
inhibition at 50 g/ha (ANTAR): 95%
inhibition at 25 g/ha (CENCY): 60%
inhibition at 50 g/ha (CENCY): 40%
inhibition at 25 g/ha (EPHHL; [2]): 60%
inhibition at 50 g/ha (EPHHL; [1]): 70%
inhibition at 25 g/ha (EPHHL; [12]): 50%
inhibition at 50 g/ha (EPHHL; [13]): 60%
inhibition at 25 g/ha (KCHSC; [2]): 70%
inhibition at 50 g/ha (KCHSC; [1]): 90%
inhibition at 25 g/ha (ABUTH; [14]): 95%
inhibition at 25 g/ha (COMBE; [2]): 65%
inhibition at 50 g/ha (COMBE; [1]): 98%
inhibition at 25 g/ha (COMBE; COMBE, individual, use rate 25 g ai/ha, read-out: observed % activity 20 DAT): 0%
inhibition at 50 g/ha (COMBE; [15]): 0%

CS(=O)(=O)c1cc(C(F)(F)F)ccc1C(=O)c1cnoc1C1CC1 [isoxaflutole]
inhibition at 50 g/ha (IPOHE; IPOHE, individual, use rate 50 g ai/ha, read-out: observed % activity 20 DAT): 35%
inhibition at 25 g/ha (GERPU; [2]): 0%
inhibition at 50 g/ha (GERPU; [1]): 45%
inhibition at 25 g/ha (GERPU; [3]): 70%
inhibition at 50 g/ha (GERPU; GERPU, individual, use rate 50 g ai/ha, read-out: observed % activity 20 DAT): 50%
inhibition at 25 g/ha (SIDRH; [4]): 90%
inhibition at 50 g/ha (SIDRH; [5]): 98%
inhibition at 25 g/ha (POLCO; [6]): 0%
inhibition at 50 g/ha (POLCO; [7]): 30%
inhibition at 25 g/ha (POLCO; [8]): 0%
inhibition at 50 g/ha (POLCO; [9]): 0%
inhibition at 25 g/ha (GALAP; [2]): 40%
inhibition at 25 g/ha (GALAP; [10]): 40%
inhibition at 50 g/ha (GALAP; [11]): 70%
inhibition at 25 g/ha (ANTAR): 95%
inhibition at 50 g/ha (ANTAR): 98%
inhibition at 25 g/ha (CENCY): 20%
inhibition at 50 g/ha (CENCY): 60%
inhibition at 25 g/ha (EPHHL; [2]): 85%
inhibition at 50 g/ha (EPHHL; [1]): 85%
inhibition at 25 g/ha (EPHHL; [12]): 65%
inhibition at 50 g/ha (EPHHL; [13]): 70%
inhibition at 25 g/ha (KCHSC; [2]): 98%
inhibition at 50 g/ha (KCHSC; [1]): 98%
inhibition at 25 g/ha (KCHSC; KCHSC, individual, use rate 25 g ai/ha, read-out: observed % activity 20 DAT): 98%
inhibition at 50 g/ha (KCHSC; KCHSC, individual, use rate 50 g ai/ha, read-out: observed % activity 20 DAT): 98%
inhibition at 25 g/ha (ABUTH; [14]): 98%
inhibition at 50 g/ha (ABUTH; ABUTH, individual, use rate 50 g ai/ha, read-out: observed % activity 20 DAT): 95%
inhibition at 25 g/ha (COMBE; [2]): 85%
inhibition at 50 g/ha (COMBE; [1]): 80%
inhibition at 50 g/ha (COMBE; [15]): 45%

Cc1nn(-c2cc(NS(C)(=O)=O)c(Cl)cc2Cl)c(=O)n1C(F)F [Sulfentrazone, sulfentrazone]
inhibition at 6 g/ha (GERPU; [16]): 40%
inhibition at 12 g/ha (GERPU; [17]): 45%
inhibition at 6 g/ha (SIDRH; Sida rhombifolia, pre-emergence, 480 h, 6 g ai/ha, 20 DAT, read-out: observed % activity): 20%
inhibition at 10 g/ha (SIDRH; Sida rhombifolia, pre-emergence, 480 h, SIDRH, pre-emergence, individual, use rate 10 g ai/ha, read-out: observed % activity 20 DAT): 30%
inhibition at 6 g/ha (POLCO; Fallopia convolvulus, 480 h, 6 g ai/ha, 20 DAT, read-out: observed % activity): 0%
inhibition at 12 g/ha (POLCO; Fallopia convolvulus, 480 h, 12 g ai/ha, 20 DAT, read-out: observed % activity): 0%
inhibition at 10 g/ha (POLCO; Fallopia convolvulus, 480 h, POLCO, individual, use rate 10 g ai/ha, read-out: observed % activity 20 DAT): 25%
observed % activity 20 DAT (POLCO; POLCO, individual, use rate 5 g ai/ha): 40%
inhibition at 6 g/ha (GALAP; [16]): 0%
inhibition at 5 g/ha (GALAP; GALAP, individual, use rate 5 g ai/ha, read-out: observed % activity 20 DAT): 25%
inhibition at 10 g/ha (GALAP; GALAP, individual, use rate 10 g ai/ha, read-out: observed % activity 20 DAT): 50%
inhibition at 6 g/ha (ANTAR; 6 g ai/ha): 30%
inhibition at 12 g/ha (ANTAR; 12 g ai/ha): 60%
inhibition at 5 g/ha (CENCY; use rate 5 g ai/ha): 20%
inhibition at 10 g/ha (CENCY; use rate 10 g ai/ha): 30%
inhibition at 12 g/ha (KCHSC; [17]): 98%
inhibition at 5 g/ha (KCHSC; KCHSC, individual, use rate 5 g ai/ha, read-out: observed % activity 20 DAT): 70%
inhibition at 10 g/ha (KCHSC; KCHSC, individual, use rate 10 g ai/ha, read-out: observed % activity 20 DAT): 65%
inhibition at 6 g/ha (ABUTH; [16]): 20%
inhibition at 12 g/ha (ABUTH; [17]): 45%
inhibition at 10 g/ha (ABUTH; ABUTH, individual, use rate 10 g ai/ha, read-out: observed % activity 20 DAT): 25%
inhibition at 6 g/ha (COMBE; [16]): 20%
inhibition at 12 g/ha (COMBE; [17]): 45%
inhibition at 10 g/ha (COMBE; COMBE, individual, use rate 10 g ai/ha, read-out: observed % activity 20 DAT): 15%
